Measured values reported in patent publication US12649751B2 (Arcus Biosciences, Inc., priority 2022, dated 2026).

Each compound was assayed against HPK1 (Homo sapiens, UniProt Q92918) (assay: HPK1 Biochemical Assay (ADP-Glo luminescence; low ATP 10 μM or high ATP 200 μM)). Settings: 2 nM HPK1, 10 μM ATP; read-out: Biochemical Potency (low ATP).
Chain of HPK1 (Q92918 whole entry, species assumed): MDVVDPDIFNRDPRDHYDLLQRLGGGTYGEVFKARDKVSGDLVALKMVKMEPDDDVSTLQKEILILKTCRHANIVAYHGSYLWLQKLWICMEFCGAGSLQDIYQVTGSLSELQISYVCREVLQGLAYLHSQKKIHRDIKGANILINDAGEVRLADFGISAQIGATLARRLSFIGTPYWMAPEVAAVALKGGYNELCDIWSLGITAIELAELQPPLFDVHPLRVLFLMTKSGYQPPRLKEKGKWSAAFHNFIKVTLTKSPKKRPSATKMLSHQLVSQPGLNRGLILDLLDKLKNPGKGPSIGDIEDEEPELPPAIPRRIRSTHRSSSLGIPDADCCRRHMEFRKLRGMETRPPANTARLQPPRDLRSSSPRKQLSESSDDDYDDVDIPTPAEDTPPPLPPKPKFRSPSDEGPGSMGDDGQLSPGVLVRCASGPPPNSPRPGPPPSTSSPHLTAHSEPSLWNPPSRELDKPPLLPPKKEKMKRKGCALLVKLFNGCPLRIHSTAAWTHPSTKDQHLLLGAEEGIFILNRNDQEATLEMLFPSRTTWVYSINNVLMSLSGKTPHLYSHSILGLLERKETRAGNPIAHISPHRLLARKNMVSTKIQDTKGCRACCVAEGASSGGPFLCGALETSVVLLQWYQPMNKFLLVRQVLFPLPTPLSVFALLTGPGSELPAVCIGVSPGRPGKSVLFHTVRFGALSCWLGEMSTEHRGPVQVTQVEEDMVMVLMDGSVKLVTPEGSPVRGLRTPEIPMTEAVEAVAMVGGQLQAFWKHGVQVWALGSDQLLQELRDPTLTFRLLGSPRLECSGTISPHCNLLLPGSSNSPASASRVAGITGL

| IC50 [nM] | Structure (SMILES) |
| --- | --- |
| 100 to 1000 | O[C@H]1CCN(c2nc3cc(Nc4ccc(C5CCOCC5)c(CN5CCCC5)n4)ncc3s2)C1 [Example 233, (3S)-1-(6-{[5-(Oxan-4-yl)-6-[(pyrrolidin-1-yl)methyl]pyridin-2-yl]amino}-[1,3]thiazolo[5,4-c]pyridin-2-yl)pyrrolidin-3-ol] |
| 100 to 1000 | c1cc(C2CCOCC2)c(CN2CCCC2)nc1Nc1cc2nc(N3C[C@@H]4C[C@H]3CO4)sc2cn1 [Example 211] |
| < 100 | Cc1cccnc1-c1nc2cc(Nc3cc(C4CCOCC4)nc(N4C[C@@H]5C[C@H]4CN5)n3)ncc2s1 [Example 250, 2-[(1S,4S)-2,5-Diazabicyclo[2.2.1]heptan-2-yl]-N-[2-(3-methylpyridin-2-yl)-[1,3]thiazolo[5,4-c]pyridin-6-yl]-6-(oxan-4-yl)pyrimidin-4-amine] |
| 100 to 1000 | CN(C)C(=O)c1cccc(-c2nc3cc(Nc4nccc(N5C[C@@H]6C[C@H]5CN6C)n4)ncc3s2)c1 [Example 243, N,N-Dimethyl-3-[6-({4-[(1S,4S)-5-methyl-2,5-diazabicyclo[2.2.1]heptan-2-yl]pyrimidin-2-yl}amino)-[1,3]thiazolo[5,4-c]pyridin-2-yl]benzamide] |
| < 100 | c1cc(-c2nc3cc(Nc4ccc(C5CCOCC5)c(CN5CCOCC5)n4)ncc3s2)ccn1 [Example 219, 6-[(Morpholin-4-yl)methyl]-5-(oxan-4-yl)-N-[2-(pyridin-4-yl)-[1,3]thiazolo[5,4-c]pyridin-6-yl]pyridin-2-amine] |
| < 100 | Cc1ccn(-c2nc3cc(Nc4ccc(N5CCOCC5)c(CN5CCCC5)n4)ncc3s2)n1 [Example 195, N-[2-(3-Methyl-1H-pyrazol-1-yl)-[1,3]thiazolo[5,4-c]pyridin-6-yl]-5-(morpholin-4-yl)-6-[(pyrrolidin-1-yl)methyl]pyridin-2-amine] |
| < 100 | COC1CCN(c2nc3cc(Nc4cc(C)cc(O[C@H]5CCNC5)n4)ncc3s2)CC1 [Example 190, N-[2-(4-Methoxypiperidin-1-yl)-[1,3]thiazolo[5,4-c]pyridin-6-yl]-4-methyl-6-((3S)-pyrrolidin-3-yloxy)pyridin-2-amine] |
| 100 to 1000 | Cc1cccnc1-c1nc2cc(Nc3nccc(N4C[C@@H]5C[C@H]4CN5)n3)ncc2s1 [Example 240, 4-[(1S,4S)-2,5-Diazabicyclo[2.2.1]heptan-2-yl]-N-[2-(3-methylpyridin-2-yl)-[1,3]thiazolo[5,4-c]pyridin-6-yl]pyrimidin-2-amine] |
| < 100 | CN(C)Cc1nc(Nc2cc3nc(NC(=O)c4c(F)cccc4F)sc3cn2)ccc1N1CCOCC1 [Example 282, N-[6-({6-[(Dimethylamino)methyl]-5-(morpholin-4-yl)pyridin-2-yl}amino)-[1,3]thiazolo[5,4-c]pyridin-2-yl]-2,6-difluorobenzamide] |
| < 100 | Cc1ccc(-c2nc3cc(Nc4ccc(C5CCOCC5)c(CN5CCCC5)n4)ncc3s2)cn1 [Example 222, N-[2-(6-Methylpyridin-3-yl)-[1,3]thiazolo[5,4-c]291yridine-6-yl]-5-(oxan-4-yl)-6-[(291yridine291ne-1-yl)methyl]291yridine-2-amine] |
| < 100 | C[C@H]1CCC(=O)N1c1nc2cc(Nc3ccc(C4CCOCC4)c(CN4CCCC4)n3)ncc2s1 [Example 208, (5S)-5-Methyl-1-(6-{[5-(oxan-4-yl)-6-[(pyrrolidin-1-yl)methyl]pyridin-2-yl]amino}-[1,3]thiazolo[5,4-c]pyridin-2-yl)pyrrolidin-2-one] |
| 100 to 1000 | Cc1cccnc1-c1nc2cc(Nc3nccc(N4C[C@@H](N)C[C@H]4CO)n3)ncc2s1 [Example 242, [(2S,4S)-4-amino-1-(2-{[2-(3-Methylpyridin-2-yl)-[1,3]thiazolo[5,4-c]pyridin-6-yl]amino}pyrimidin-4-yl)pyrrolidin-2-yl]methanol] |
| 100 to 1000 | C[C@@H]1CCC(=O)N1c1nc2cc(Nc3ccc(C4CCOCC4)c(CN4CCCC4)n3)ncc2s1 [Example 207, (5R)-5-Methyl-1-(6-{[5-(oxan-4-yl)-6-[(pyrrolidin-1-yl)methyl]pyridin-2-yl]amino}-[1,3]thiazolo[5,4-c]pyridin-2-yl)pyrrolidin-2-one] |
| < 100 | Cc1cc(Nc2cc3nc(N4CCOCC4)sc3cn2)nc(O[C@H]2CCNC2)c1 [Example 191, 4-Methyl-N-[2-(morpholin-4-yl)-[1,3]thiazolo[5,4-c]pyridin-6-yl]-6-((3S)-pyrrolidin-3-yloxy)pyridin-2-amine] |

More lines, now with the values behind:

| Structure (SMILES) | IC50 [nM] |
| --- | --- |
| CN(C)C(=O)c1cc(-c2nc3cc(Nc4ccnc(N5C[C@@H]6C[C@H]5CN6C)n4)ncc3s2)ccn1 [Example 127, N,N-Dimethyl-4-[6-({2-[(1S,4S)-5-methyl-2,5-diazabicyclo[2.2.1]heptan-2-yl]pyrimidin-4-yl}amino)-[1,3]thiazolo[5,4-c]pyridin-2-yl]pyridine-2-carboxamide] | < 100 |
| Cc1cccnc1-c1nc2cc(Nc3cc(N4C[C@@H]5C[C@H]4CN5)ccn3)ncc2s1 [Example 86, 4-[(1S,4S)-2,5-Diazabicyclo[2.2.1]heptan-2-yl]-N-[2-(3-methylpyridin-2-yl)-[1,3]thiazolo[5,4-c]pyridin-6-yl]pyridin-2-amine] | > 5000 |
| Cc1ccc(Nc2cc3nc(-c4cnn(C5CCOCC5)c4)sc3cn2)nc1CN1CCCC1 [Example 39, 5-Methyl-N-{2-[1-(oxan-4-yl)-1H-pyrazol-4-yl]-[1,3]thiazolo[5,4-c]pyridin-6-yl}-6-[(pyrrolidin-1-yl)methyl]pyridin-2-amine] | < 100 |
| CN1C[C@@H]2C[C@H]1CN2c1cncc(Nc2cc3nc(-c4cccc(C(C)(C)O)c4)sc3cn2)n1 [Example 152, 2-{3-[6-({6-[(1S,4S)-5-Methyl-2,5-diazabicyclo[2.2.1]heptan-2-yl]pyrazin-2-yl}amino)-[1,3]thiazolo[5,4-c]pyridin-2-yl]phenyl}propan-2-ol] | < 100 |
| Cc1ccc(Nc2cc3nc(-c4cnn(C5CCOC5)c4)sc3cn2)nc1CN1CCCC1 (centres unmarked) [Example 38, 5-Methyl-N-{2-[1-(oxolan-3-yl)-1H-pyrazol-4-yl]-[1,3]thiazolo[5,4-c]pyridin-6-yl}-6-[(pyrrolidin-1-yl)methyl]pyridin-2-amine] | < 100 |
| Cc1cccnc1-c1nc2cc(Nc3ccc(C)c(N4C[C@H](O)C[C@H]4CO)n3)ncc2s1 [Example 77, (3R,5S)-5-(Hydroxymethyl)-1-(3-methyl-6-{[2-(3-methylpyridin-2-yl)-[1,3]thiazolo[5,4-c]pyridin-6-yl]amino}pyridin-2-yl)pyrrolidin-3-ol] | < 100 |
| Cc1cc(Nc2cc3nc(C4CCOCC4)sc3cn2)nc(O[C@H]2CCNC2)c1 [Example 184, 4-Methyl-N-[2-(oxan-4-yl)-[1,3]thiazolo[5,4-c]pyridin-6-yl]-6-[(3S)-pyrrolidin-3-yloxy]pyridin-2-amine] | < 100 |
| CN1C[C@@H]2C[C@H]1CN2c1nccc(Nc2cc3nc(-c4ncco4)sc3cn2)n1 [Example 157, 2-[(1S,4S)-5-Methyl-2,5-diazabicyclo[2.2.1]heptan-2-yl]-N-[2-(1,3-oxazol-2-yl)-[1,3]thiazolo[5,4-c]pyridin-6-yl]pyrimidin-4-amine] | < 100 |
| Cc1cccnc1-c1nc2cc(Nc3cccc(N4C5CC4CN(C)C5)n3)ncc2s1 [Example 99, 6-{3-Methyl-3,6-diazabicyclo[3.1.1]heptan-6-yl}-N-[2-(3-methylpyridin-2-yl)-[1,3]thiazolo[5,4-c]pyridin-6-yl]pyridin-2-amine] | 1000 to 5000 |
